Experimental data reported in PubChem BioAssay AID248 (DTP/NCI, 2004).
Where “and” joins values, the source holds several entries; their conditions need not be identical. Identical values can stand only once. Toxic doses and inconclusive results are not listed. No stated cut-off is given here; in the data, active means T/C of 150% or more; inactive means T/C below 125%.

Test system: L1210 leukemia ip in BDF1 mice, survival T/C
Experiment: NCI In Vivo Anticancer Drug Screen. Data for tumor model L1210 Leukemia (intraperitoneal) in B6D2F1 (BDF1) mice
Settings: endpoint: mean survival time, higher = longer survival
Procedure, shortened: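 Transplantable tumor model; survival measured in treated vs vehicle control mice. Value = treated/control.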

[1] = dose: 100.0 mg/kg/injection, schedule: Q01DX009 (ip), vehicle: saline with Tween-80
[2] = dose: 100.0 mg/kg/injection, schedule: Q04DX003 (ip), vehicle: saline with Tween-80
[3] = dose: 200.0 mg/kg/injection, schedule: Q01DX009 (ip), vehicle: saline with Tween-80
[4] = dose: 200.0 mg/kg/injection, schedule: Q04DX003 (ip), vehicle: saline with Tween-80
[5] = dose: 400.0 mg/kg/injection, schedule: Q04DX003 (ip), vehicle: saline with Tween-80
[6] = dose: 100.0 mg/kg/injection, schedule: Q04DX003 (ip), vehicle: saline
[7] = dose: 200.0 mg/kg/injection, schedule: Q04DX003 (ip), vehicle: saline
[8] = dose: 400.0 mg/kg/injection, schedule: Q04DX003 (ip), vehicle: saline
[9] = dose: 100.0 mg/kg/injection, schedule: Q01DX009 (ip), vehicle: Klucel (hydroxypropylcellulose) (HPC)
[10] = dose: 100.0 mg/kg/injection, schedule: Q04DX003 (ip), vehicle: Klucel (hydroxypropylcellulose) (HPC)
[11] = dose: 200.0 mg/kg/injection, schedule: Q01DX009 (ip), vehicle: Klucel (hydroxypropylcellulose) (HPC)
[12] = dose: 200.0 mg/kg/injection, schedule: Q04DX003 (ip), vehicle: Klucel (hydroxypropylcellulose) (HPC)
[13] = dose: 400.0 mg/kg/injection, schedule: Q01DX009 (ip), vehicle: Klucel (hydroxypropylcellulose) (HPC)
[14] = dose: 400.0 mg/kg/injection, schedule: Q04DX003 (ip), vehicle: Klucel (hydroxypropylcellulose) (HPC)
[15] = dose: 100.0 mg/kg/injection, schedule: Q04DX002 (ip), vehicle: Klucel (hydroxypropylcellulose) (HPC)
[16] = dose: 200.0 mg/kg/injection, schedule: Q04DX002 (ip), vehicle: Klucel (hydroxypropylcellulose) (HPC)
[17] = dose: 400.0 mg/kg/injection, schedule: Q04DX002 (ip), vehicle: Klucel (hydroxypropylcellulose) (HPC)
[18] = dose: 100.0 mg/kg/injection, schedule: Q01DX001 (ip), vehicle: carboxymethylcellulose (CMC)
[19] = dose: 200.0 mg/kg/injection, schedule: Q01DX001 (ip), vehicle: carboxymethylcellulose (CMC)
[20] = dose: 400.0 mg/kg/injection, schedule: Q01DX001 (ip), vehicle: carboxymethylcellulose (CMC)
[21] = dose: 100.0 mg/kg/injection, schedule: Q01DX001 (ip), vehicle: saline
[22] = dose: 50.0 mg/kg/injection, schedule: Q01DX001 (ip), vehicle: saline
[23] = dose: 200.0 mg/kg/injection, schedule: Q01DX001 (ip), vehicle: saline
[24] = dose: 400.0 mg/kg/injection, schedule: Q01DX001 (ip), vehicle: saline
[25] = dose: 50.0 mg/kg/injection, schedule: Q01DX009 (ip), vehicle: saline with Tween-80

Measured: T/C

O=C(NC(O)C(Cl)(Cl)Cl)c1ccccc1O (configuration not stated)
inactive: [1] 95 % of control | [2] 93 % of control | [3] 103 % of control | [4] 95 % of control | [5] 95 % of control

O=C(NCCF)NC1CCCCCCCCCCC1
inactive: dose: 9.5 mg/kg/injection, schedule: Q01DX001 (ip), vehicle: other 101 % of control | dose: 19.0 mg/kg/injection, schedule: Q01DX001 (ip), vehicle: other 92 % of control | dose: 38.0 mg/kg/injection, schedule: Q01DX001 (ip), vehicle: other 121 % of control

CCOC(=O)/C=C/C(=O)O.[Cu+2]
inactive: dose: 3.12 mg/kg/injection, schedule: Q04DX003 (ip), vehicle: saline 94 % of control | dose: 6.25 mg/kg/injection, schedule: Q04DX003 (ip), vehicle: saline 89 % of control and 91 % of control

CCSC(C)C
inactive: [6] 106 % of control | [7] 107 % of control | [8] 102 % of control

COc1ccc(C2CCc3cc4c(cc3/C2=N/OC(C)=O)OCO4)cc1OC (configuration not stated)
inactive: [9] 105 % of control | [10] 102 % of control | [11] 97 % of control | [12] 101 % of control | [13] 92 % of control | [14] 101 % of control

COc1cccc(CC(C)N)c1OC (configuration not stated)
inactive: dose: 25.0 mg/kg/injection, schedule: Q04DX003 (ip), vehicle: saline 103 % of control | dose: 50.0 mg/kg/injection, schedule: Q04DX003 (ip), vehicle: saline 91 % of control | [6] 101 % of control

COc1ccc(S(=O)(=O)Nc2cc(Cl)ccc2Cl)cc1
inactive: [1] 92 % of control | [3] 103 % of control | dose: 400.0 mg/kg/injection, schedule: Q01DX009 (ip), vehicle: saline with Tween-80 95 % of control

CCCCCCCCCCCCCCCCCC(=O)OCC(COC(=O)CCCCCCCC(CO)CCCCCCCCC)OC(=O)CCCCCCCC(CO)CCCCCCCCC (configuration not stated)
inactive: [15] 101 % of control | [16] 101 % of control | [17] 101 % of control

NC(=S)N/N=C\c1ccccc1/C=N/NC(N)=S
inactive: dose: 50.0 mg/kg/injection, schedule: Q01DX001 (ip), vehicle: carboxymethylcellulose (CMC) 109 % of control | [18] 98 % of control | [19] 98 % of control | [20] 98 % of control

CCOC(=O)c1c(-c2ccc([N+](=O)[O-])cc2)c(C#N)n(-c2ccccc2)c1C
inactive: [15] 95 % of control | [16] 92 % of control | [17] 103 % of control

Cl/C=C(\Cl)CCl
inactive: [1] 100 % of control | [6] 97 % of control | [7] 102 % of control | [8] 105 % of control

C=C(CSCC(N)=O)c1ccccc1
inactive: [15] 97 % of control | [16] 97 % of control | [17] 94 % of control

CCCCCCCCCCCCCCCCOc1ccc(C=Nc2ccc(C)cc2)cc1
inactive: [10] 103 % of control | [12] 97 % of control | [14] 104 % of control

O=C1C(Cl)=C(NCCCCCCNC2=C(Cl)C(=O)c3ccccc3C2=O)C(=O)c2ccccc21
inactive: [21] 106 % of control

COc1[nH]c(=O)ncc1Br
inactive: [22] 105 % of control | [21] 103 % of control | [23] 109 % of control | [24] 103 % of control

COc1ccc(CNc2ccccc2C(=O)O)cc1OC
inactive: [21] 91 % of control | [24] 103 % of control

Cc1ccc(C)c(NC(=O)Oc2cc(C)c(Cl)cc2C(C)C)c1
inactive: [9] 92 % of control and 102 % of control | [10] 103 % of control | [11] 100 % of control and 87 % of control | [12] 115 % of control | [13] 102 % of control and 90 % of control | [14] 97 % of control

CCOC(=O)/C(C#N)=C/c1cccn1Cc1ccc2c(c1)OCO2
inactive: dose: 25.0 mg/kg/injection, schedule: Q04DX002 (ip), vehicle: saline 101 % of control | dose: 50.0 mg/kg/injection, schedule: Q04DX002 (ip), vehicle: saline 105 % of control | dose: 100.0 mg/kg/injection, schedule: Q04DX002 (ip), vehicle: saline 105 % of control

C#CC(C)(C)CC(=O)O
inactive: [2] 98 % of control | [4] 95 % of control | [5] 92 % of control

CCNC1CCCCC1
inactive: [25] 104 % of control | [1] 107 % of control

CCC(C)C(NC(=O)OCc1ccccc1)C(=O)ON1C(=O)CCC1=O (configuration not stated)
inactive: [1] 94 % of control | [3] 96 % of control

CCCCCCC[As](=O)(O)CCCCCCC
inactive: [22] 106 % of control | [21] 103 % of control | [23] 101 % of control

NC(=S)c1c(N)n(C2OC(CO)C(O)C2O)c2ncnc(N)c12 (configuration not stated)
inactive: dose: 3.12 mg/kg/injection, schedule: Q01DX005 (ip), vehicle: saline 116 % of control | dose: 6.25 mg/kg/injection, schedule: Q01DX005 (ip), vehicle: saline 119 % of control and 124 % of control | dose: 12.5 mg/kg/injection, schedule: Q01DX005 (ip), vehicle: saline 112 % of control and 119 % of control | dose: 25.0 mg/kg/injection, schedule: Q01DX005 (ip), vehicle: saline 105 % of control | dose: 50.0 mg/kg/injection, schedule: Q01DX005 (ip), vehicle: saline 120 % of control

O=C(C(Br)c1ccccc1)C(Br)c1ccccc1 (configuration not stated)
inactive: dose: 6.25 mg/kg/injection, schedule: Q01DX009 (ip), vehicle: saline with Tween-80 104 % of control | dose: 12.5 mg/kg/injection, schedule: Q01DX009 (ip), vehicle: saline with Tween-80 98 % of control and 107 % of control | dose: 12.5 mg/kg/injection, schedule: Q04DX003 (ip), vehicle: saline with Tween-80 96 % of control | dose: 25.0 mg/kg/injection, schedule: Q01DX009 (ip), vehicle: saline with Tween-80 100 % of control and 110 % of control | dose: 25.0 mg/kg/injection, schedule: Q04DX003 (ip), vehicle: saline with Tween-80 90 % of control | [25] 102 % of control | dose: 50.0 mg/kg/injection, schedule: Q04DX003 (ip), vehicle: saline with Tween-80 101 % of control

CC(CC#N)OC(=O)c1cccc([N+](=O)[O-])c1 (configuration not stated)
inactive: [9] 91 % of control | [10] 115 % of control | [11] 93 % of control | [12] 93 % of control | [13] 98 % of control | [14] 105 % of control

O=C(Nc1ccccc1)OC1CCCCC1OC(=O)Nc1ccccc1 (configuration not stated)
inactive: dose: 100.0 mg/kg/injection, schedule: Q04DX002 (ip), vehicle: saline with Tween-80 87 % of control | dose: 200.0 mg/kg/injection, schedule: Q04DX002 (ip), vehicle: saline with Tween-80 107 % of control | dose: 400.0 mg/kg/injection, schedule: Q04DX002 (ip), vehicle: saline with Tween-80 97 % of control

OCC(O)C(O)C(O)CC(c1ccc(Cl)cc1)c1ccc(Cl)cc1 (configuration not stated)
inactive: [22] 102 % of control | [21] 102 % of control | [23] 106 % of control | [24] 107 % of control

O=C1CCCC2=C1C(c1ccncc1)Nc1ccccc1N2 (configuration not stated)
inactive: [15] 103 % of control | [16] 117 % of control | [17] 109 % of control

Oc1ccc2ccc(Cl)cc2c1
inactive: [18] 95 % of control | [19] 90 % of control | [20] 95 % of control

C(=C/c1nc2ccccc2o1)/c1ccc2c(c1)OCO2
inactive: [15] 97 % of control | [16] 97 % of control | [17] 97 % of control

C1=NCCc2cc3[nH]c4ccccc4c3cc21
inactive: dose: 25.0 mg/kg/injection, schedule: Q01DX009 (ip), vehicle: Klucel (hydroxypropylcellulose) (HPC) 100 % of control | dose: 50.0 mg/kg/injection, schedule: Q01DX009 (ip), vehicle: Klucel (hydroxypropylcellulose) (HPC) 100 % of control | dose: 50.0 mg/kg/injection, schedule: Q04DX003 (ip), vehicle: Klucel (hydroxypropylcellulose) (HPC) 98 % of control | dose: 100.0 mg/kg/injection, schedule: Q01DX001 (ip), vehicle: Klucel (hydroxypropylcellulose) (HPC) 95 % of control | [9] 102 % of control | [10] 97 % of control | dose: 200.0 mg/kg/injection, schedule: Q01DX001 (ip), vehicle: Klucel (hydroxypropylcellulose) (HPC) 91 % of control
